Results on 39 compounds are retold here after ChEMBL document CHEMBL5352465, “Small molecules containing chalcogen elements (S, Se, Te) as new warhead to fight neglected tropical diseases” (Eur J Med Chem, 2023).

One may read the IC50 as the midpoint of a concentration-inhibition curve. For orientation: inhibition means the relative decrease from the control value, in per cent. One may read the IC90 as the concentration at which the effect reaches the 90% level.

Series [1] can be described thus: Selectivity index, ratio of CC50 for […] to ratio of IC50 for antileishmanial activity against Leishmania infantum promastigote. It counts as toxicity, cell-based. Conditions: read-out: Ratio CC50/IC50.
Series [2] concerns Leishmania aethiopica. Kind of series: Antileishmanial activity against Leishmania aethiopica amastigotes assessed as inhibition of parasite growth measured after 24 hrs by Alamar blue based analysis. It counts as functional, organism-based.
The subject of series [3] is Leishmania donovani. Briefly: Antileishmanial activity against Leishmania donovani promastigotes assessed as inhibition of parasite growth measured after 24 hrs by Alamar blue based analysis. The series is classed as functional, organism-based.
Series [4] concerns Trypanosoma cruzi. Briefly: Antitrypanosomal activity against Trypanosoma cruzi epimastigote Dm28c strain assessed as parasite growth inhibition incubated for 96 hrs by Neubauer chamber based light microscopic analysis. It counts as functional, organism-based.
For series [5], the system named is Leishmania panamensis. Briefly: Antileishmanial activity against Leishmania panamensis MHOM/CO/87/UA140-EpiR-GFP strain amastigotes assessed as inhibition of parasite growth incubated for 72 hrs by flow cytometric analysis. The series is classed as functional, organism-based. For orientation: In flow cytometry, cells or beads pass a laser one at a time.
For series [6], the system named is Leishmania panamensis. Kind of series: Antileishmanial activity against Leishmania panamensis MHOM/CO/87/UA140-EpiR-GFP strain promastigotes assessed as inhibition of parasite growth incubated for 72 hrs by flow cytometric analysis. The series is classed as functional, organism-based.
Series [7] deals with Trypanosoma cruzi. Briefly: Antitrypanosomal activity against Trypanosoma cruzi epimastigote assessed as parasite growth inhibition by optical density based analysis. The series is classed as functional, organism-based.
Series [8] deals with Cruzipain (Trypanosoma cruzi) (UniProt P25779). Briefly: Inhibition of Trypanosoma cruzi recombinant Cruzaine using Z-FR-AMC as substrate preincubated for 10 mins followed by substrate addition by fluorimeter analysis.
Cruzipain (Trypanosoma cruzi), sequence (P25779 123-467 limits assumed): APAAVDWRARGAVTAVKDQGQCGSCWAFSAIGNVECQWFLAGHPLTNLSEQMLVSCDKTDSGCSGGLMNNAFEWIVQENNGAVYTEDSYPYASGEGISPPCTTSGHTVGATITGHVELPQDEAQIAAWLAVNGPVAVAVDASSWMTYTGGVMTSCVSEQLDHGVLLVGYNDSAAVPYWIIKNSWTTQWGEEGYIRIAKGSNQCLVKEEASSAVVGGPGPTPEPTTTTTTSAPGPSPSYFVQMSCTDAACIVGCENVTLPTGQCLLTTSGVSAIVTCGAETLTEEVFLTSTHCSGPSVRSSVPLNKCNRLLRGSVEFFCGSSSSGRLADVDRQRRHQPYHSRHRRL
The test system of series [9] is Leishmania infantum. Briefly: Antileishmanial activity against Leishmania infantum promastigotes assessed as reduction in cell viability. It counts as functional, organism-based.
Series [10] in a line: Selectivity index, ratio of CC50 for human CC cells to ratio of IC50 for antileishmanial activity against Leishmania major promastigote. It counts as toxicity. Conditions: read-out: Ratio CC50/IC50.
Series [11] deals with Leishmania infantum. Kind of series: Antileishmanial activity against Leishmania infantum promastigotes assessed as inhibition of parasite growth. The series is classed as functional, organism-based.
Series [12] relates to Leishmania infantum. Briefly: Antileishmanial activity against Leishmania infantum amastigotes assessed as inhibition of parasite growth. It counts as functional, organism-based.
Series [13] deals with Leishmania amazonensis. Briefly: Antileishmanial activity against Leishmania amazonensis amastigotes assessed as inhibition of parasite growth. The series is classed as functional, organism-based.
A short description of series [14]: Selectivity index, ratio of CC50 for rat L6 cells to IC50 for antitrypanosomal activity against bloodstream Trypanosoma brucei. It counts as toxicity. The conditions noted are these: read-out: Ratio CC50/IC50.
Series [15] is described as follows: Selectivity index, ratio of CC50 for rat L6 cells to IC50 for antitrypanosomal activity against bloodstream Trypanosoma brucei gambiense. It counts as toxicity. Conditions: read-out: Ratio CC50/IC50.
For series [16], the system named is Trypanosoma brucei. Kind of series: Antitrypanosomal activity against bloodstream Trypanosoma brucei assessed as parasite growth inhibition measured after 72 hrs by resazurin staining based analysis. The series is classed as functional, organism-based. A general note: Resazurin is reduced to fluorescent resorufin, in cell work by metabolically active cells.
Series [17] relates to Trypanosoma brucei gambiense. Briefly: Antitrypanosomal activity against bloodstream Trypanosoma brucei gambiense assessed as parasite growth inhibition measured after 72 hrs by resazurin staining based analysis. It counts as functional, organism-based.
In series [18] the test system is Trypanosoma brucei. Briefly: Antitrypanosomal activity against bloodstream Trypanosoma brucei 427 strain assessed as parasite growth inhibition measured after 24 hrs by propidium iodide staining based flow cytometer method. Conditions: Trypanosoma brucei, 427, 24 h. The series is classed as functional, organism-based.
Series [19] deals with Trypanosoma cruzi. Kind of series: Antitrypanosomal activity against bloodstream Trypanosoma cruzi Y strain trypomastigotes assessed as parasite growth inhibition incubated for 24 hrs by light microscopic analysis. It counts as functional, organism-based.
Series [20] deals with Trypanosoma cruzi. Kind of series: Antitrypanosomal activity against Trypanosoma cruzi Tulahuen strain trypomastigotes assessed as parasite growth inhibition incubated for 18 hrs by light microscopic analysis. The series is classed as functional.
Series [21] relates to Leishmania infantum. Briefly: Antileishmanial activity against Leishmania infantum promastigotes assessed as reduction in cell viability incubated for 24 hrs by propidium iodide staining based flow cytometry assay. The series is classed as functional, organism-based.
For series [22], the system named is Leishmania braziliensis. Briefly: Antileishmanial activity against Leishmania braziliensis promastigotes assessed as inhibition of parasite growth. The series is classed as functional, organism-based.
Series [23] concerns Leishmania amazonensis. Kind of series: Antileishmanial activity against Leishmania amazonensis promastigotes assessed as inhibition of parasite growth. The series is classed as functional, organism-based.
In series [24] the test system is Leishmania major. Briefly: Antileishmanial activity against Leishmania major promastigote assessed as inhibition of parasite growth. The series is classed as functional, organism-based.
Series [25] can be described thus: Selectivity index, ratio of CC50 for cytotoxicity against Swiss mouse peritoneal macrophages to IC50 for antitrypanosomal activity against bloodstream Trypanosoma cruzi Y strain trypomastigotes. The series is classed as toxicity. Conditions: read-out: Ratio CC50/IC50.
Series [26] concerns Trypanosoma cruzi. Briefly: Antitrypanosomal activity against bloodstream Trypanosoma cruzi Y strain trypomastigotes assessed as parasite growth inhibition incubated for 24 hrs by Neubauer chamber based light microscopic analysis. It counts as functional, organism-based.
Series [27] can be described thus: Selectivity index, ratio of LC50 for human U-937 cells to ratio of IC50 for antileishmanial activity against Leishmania panamensis MHOM/CO/87/UA140-EpiR-GFP strain promastigotes. It counts as toxicity. Conditions: read-out: Ratio LC50/IC50.
For series [28], the system named is Leishmania tropica. Kind of series: Antileishmanial activity against Leishmania tropica promastigotes assessed as inhibition of parasite growth. It counts as functional, organism-based.
Series [29] concerns Trypanosoma cruzi. Kind of series: Antitrypanosomal activity against Trypanosoma cruzi Y strain epimastigotes assessed as parasite growth inhibition incubated for 48 hrs by spectrophotometric analysis. The series is classed as functional, organism-based.

For `O=C1c2ccccc2C(=O)N1Nc1nc(-c2ccc3ccccc3c2)cs1`, the selectivity ratio in series [1] was determined as 12.5.

`Cc1ccc(-c2cc(C3CC(c4cccs4)=NN3)n(-c3ccccc3)n2)cc1` (configuration not stated): the IC50 in [2] was determined as 1.08 µM; in series [3], 2.07 µM.

Take `C/C(=N\NC(N)=S)c1cc(Cl)ccc1Cl`: the IC50 in series [4] turned out to be 6.6 µM.

With `O=C1C=C(c2ccc(C(F)(F)F)cc2)S(=O)(=O)c2ccc(F)cc21`, the figures for the half-inhibitory concentration (IC50) in series [5] and in [6] were 6.72 µM and 3.24 µM, respectively.

On to `NC(=S)N/N=C/c1ccc[nH]1`, for which, in [7], the IC50 is 27 µM. Moreover, in series [8], the inhibition was 70%.

`C/C(=N\Nc1nc(-c2ccc(Cl)c(Cl)c2)c(C)s1)c1ccccn1`: in series [9], the IC50 was determined as 2.73 µM.

For the compound `Cc1sc(N/N=C/c2ccccn2)nc1-c1ccc(Cl)c(Cl)c1`, the IC50 in series [9] worked out at 5.52 µM.

Turning to `COCCCNc1nnc(-c2ccc([N+](=O)[O-])s2)s1`, in series [10], the selectivity ratio was 2.

Take `CCC(C)Oc1cc(N)nc(Sc2cccc(Cl)c2)n1` (configuration not stated): the IC50 was 29.4 µM in [11] and more than 0.25 µM in series [12].

As to `Cc1ccc([Te]Cc2ncc(-c3ccc(S(C)(=O)=O)cc3)[se]2)cc1`, the IC50 in [13] worked out at 6.14 µM.

Take `CCOC(=O)c1ccc(N/C=C2/SC(=O)N(C(Cc3ccccc3)C(=O)OCC)C2=S)cc1` (configuration not stated): the figures for the selectivity ratio in [14] and in series [15] were 409 and 1400, respectively. Also, the IC50 in series [16] is 0.091 µM; in [17] it was 0.027 µM.

With `CC(=O)OCC1O[C@@H](OC(C)=O)[C@H]([Se][Se]C2O[C@H](COC(C)=O)[C@H](OC(C)=O)[C@H](OC(C)=O)[C@H]2OC(C)=O)[C@@H](OC(C)=O)[C@H]1OC(C)=O` (some centres not stated), the IC50 in [18] worked out at 3.3 µM.

On to `CCOC(=O)C(Cc1ccccc1)N1C(=O)S/C(=C/Nc2cc(S(=O)(=O)N3CCOCC3)ccc2C)C1=S` (configuration not stated), for which the figures for the selectivity ratio in [14] and in series [15] were more than 255 and more than 870, respectively. The IC50 in series [16] worked out at 0.679 µM; in series [17], 0.2 µM.

Regarding `N=C(N)c1ccc2nc(-c3ccc(-c4ccc(OCCc5cn(Cc6cccc7ccccc67)nn5)cc4)s3)[nH]c2c1`, in [19], the IC50 is 2.14 µM. Also, the 90% effect concentration (IC90) in [20] is 5.78 µM.

For the compound `CC(=O)OCC1OC([Se][Se]C2O[C@H](COC(C)=O)[C@@H](OC(C)=O)[C@@H](OC(C)=O)[C@H]2OC(C)=O)[C@H](OC(C)=O)[C@@H](OC(C)=O)C1OC(C)=O` (some centres not stated), the IC50 in series [18] was determined as 2.7 µM.

Regarding `CCc1cc(-c2csc(-c3ccc(-n4ccnc4CNCCN)cc3OCCN3CCNC3=O)n2)cc2ccccc12`, in series [21], the half-inhibitory concentration (IC50) stood at 5.1 µM.

`OCCSc1ccnc2cc(Cl)ccc12`: the IC50 in [22] and in series [23] was more than 100 µM throughout.

As for `NCCSc1ccnc2cc(Cl)ccc12`, the IC50 in [22] was 39.9 µM; in series [23], 52.9 µM.

`O=C1c2cccc3cccc(c23)C(=O)C1CCCCCCN=C=[Se]`: the IC50 in series [24] came to 0.03 µM; in series [23], 0.2 µM.

Turning to `Fc1ccc(-c2nnc(N/N=C/c3ccccn3)s2)cc1`, the selectivity ratio in [25] came out at 6. The IC50 in series [26] was determined as 9.3 µM.

Consider `NC(=S)N/N=C(/C=C/c1ccccc1)c1ccccc1`, for which the figures for the IC50 in series [11] and in series [12] were 14.7 µM and 6.88 µM, respectively.

`ClCCN(CCCl)c1nc(Cl)c(C2CC(c3ccc(Br)cc3)=NN2c2ccccc2)s1` (configuration not stated): in series [5], the concentration for half-maximal inhibition (IC50) came out at 10.9 µM. Further, in series [27], the selectivity ratio was 1.6.

Turning to `Brc1ccc(-c2csc(N/N=C/c3ccccn3)n2)cc1`, the IC50 in [9] came to 3.12 µM.

Take `O=C1c2ccccc2C(=O)N1Nc1nc(-c2ccc(Cl)cc2Cl)cs1`: in series [1], the selectivity ratio came out at 6.4.

For the compound `O=C(Nc1nc2cnc(Cl)nc2s1)c1ccc(Cl)cc1`, the IC50 in series [28] worked out at 7.5 µM.

As to `C/C(=N\Nc1nc(-c2ccc(F)cc2)cs1)c1ccccn1`, the IC50 in [9] stood at 0.42 µM.

Turning to `COc1cc(C2=NN(c3ccccc3)C(c3sc(N(CCCl)CCCl)nc3Cl)C2)cc(OC)c1OC` (configuration not stated), in [5], the IC50 was 13.9 µM. Further, the selectivity ratio in series [27] came to 1.48.

Take `C(=N\Nc1nnc(-c2ccccn2)s1)/c1ccccn1`: the selectivity ratio in series [25] worked out at 7.7. Moreover, in [26], the IC50 is 9.5 µM.

Regarding `O=[N+]([O-])c1ccc(-c2nnc(NCCCO)s2)s1`, the selectivity ratio in series [10] stood at 14.

On to `CN(C)c1ccc(/C=N/NC(N)=S)cc1`, for which the inhibition in series [8] came to 70%.

For the compound `C/C(=N\NC(N)=S)c1ccc(Cl)cc1Cl`, the 50% inhibitory concentration (IC50) in series [4] stood at 24.8 µM.

For the compound `C/C(=N\NC(N)=S)c1ccc(Cl)c(Cl)c1Cl`, the concentration for half-maximal inhibition (IC50) in [4] is 29 µM.

In the case of `NS(=O)(=O)c1ccc(O)c([N+](=O)[O-])c1`, the half-maximal inhibitory concentration (IC50) in series [29] turned out to be 97.7 µM.

In the case of `O=C(CSc1nc(-c2ccccc2)cc2cc(-c3ccccc3)nn12)N/N=C/c1ccccc1`, the IC50 was determined as 4.92 µM in [11] and 5.85 µM in series [12].

As to `CC(c1cccc2ccccc12)n1cc(CCOc2ccc(-c3ccc(-c4nc5ccc(C(=N)N)cc5[nH]4)s3)cc2)nn1` (configuration not stated), the IC50 in series [19] was 3.07 µM. Also, in series [20], the IC90 came out at 7.78 µM.

On to `O=C(Nc1nc2cnc(Cl)nc2s1)c1ccc(Cl)cc1Cl`, for which the IC50 in series [28] amounted to 0.5 µM.

Turning to `CCc1cc(-c2csc(-c3ccc(-n4ccnc4CNCCN)cc3OCCN3CCNC3=O)n2)ccc1-c1ccccc1`, the IC50 in series [21] was 8.6 µM.

Turning to `CC(=O)N1N=C(c2cccs2)CC1c1cc(-c2ccc(C)cc2)nn1-c1ccccc1` (configuration not stated), the IC50 was determined as 2.24 µM in series [2] and 0.16 µM in [3].

For the compound `[Se]=C=NCCCCc1ccccc1` [PHENYLBUTYL ISOSELENOCYANATE], the figures for the IC50 in [24] and in [23] were 7.2 µM and 4.5 µM, respectively.
